Usually IC50 stands for the concentration needed to halve the response being measured.

The target in this test is T1, Calpain I (Homo sapiens, UniProt P07384).
T1 construct: made in house
T1 sequence (P07384 1-714): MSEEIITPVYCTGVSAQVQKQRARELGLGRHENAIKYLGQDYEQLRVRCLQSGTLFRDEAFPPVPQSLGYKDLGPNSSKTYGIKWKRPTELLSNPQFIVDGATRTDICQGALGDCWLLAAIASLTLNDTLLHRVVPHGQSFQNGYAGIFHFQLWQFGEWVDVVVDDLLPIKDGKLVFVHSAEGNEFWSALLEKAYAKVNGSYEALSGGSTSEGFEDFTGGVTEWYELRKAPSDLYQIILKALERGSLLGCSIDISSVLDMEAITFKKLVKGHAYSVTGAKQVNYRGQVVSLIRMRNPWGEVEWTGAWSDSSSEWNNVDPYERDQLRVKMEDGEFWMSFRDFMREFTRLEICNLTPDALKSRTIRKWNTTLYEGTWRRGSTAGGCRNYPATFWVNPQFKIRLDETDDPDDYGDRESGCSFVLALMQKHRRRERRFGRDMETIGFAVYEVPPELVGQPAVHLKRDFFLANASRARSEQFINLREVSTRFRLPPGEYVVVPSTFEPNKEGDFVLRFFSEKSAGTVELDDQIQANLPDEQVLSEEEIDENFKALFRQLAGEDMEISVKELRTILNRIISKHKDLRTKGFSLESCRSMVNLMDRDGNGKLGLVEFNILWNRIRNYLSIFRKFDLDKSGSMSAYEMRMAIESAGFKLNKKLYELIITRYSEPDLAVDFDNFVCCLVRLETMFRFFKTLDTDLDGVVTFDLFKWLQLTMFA
T1 sequence (P04632 1-268 partner): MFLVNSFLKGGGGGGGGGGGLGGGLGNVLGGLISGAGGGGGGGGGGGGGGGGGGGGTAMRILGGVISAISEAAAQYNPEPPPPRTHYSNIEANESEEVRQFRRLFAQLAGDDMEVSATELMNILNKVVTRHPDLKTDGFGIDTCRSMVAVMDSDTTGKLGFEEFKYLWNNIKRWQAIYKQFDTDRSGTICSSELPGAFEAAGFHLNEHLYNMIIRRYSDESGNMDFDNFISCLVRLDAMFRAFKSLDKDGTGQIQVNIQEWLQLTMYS
Kind of test: Inhibition of calpain I activity (Succ-Leu-Tyr-MNA substrate hydrolysis, fluorescence). Particulars: calpain I, 0.2 mM Succ-Leu-Tyr-MNA, pH 7.5, read-out: IC50. It is filed as biochemical. The method, then: To evaluate inhibitory activity, stock solutions (40 times concentrated) of each compound to be tested were prepared in 100% anhydrous DMSO and […] of each inhibitor preparation were aliquoted into each of three wells of a 96-well plate. Calpain I, prepared by a modification of the method of W. J. Lee et al. (Biochem. […] To start the reaction, […] of 50 mM CaCl2 in assay buffer was added to each of the wells of the plate, excepting three, which were used as background signal baseline controls. Substrate hydrolysis was monitored every 5 minutes for a total of 30 minutes using a Fluoroskan II fluorescence plate reader. […] Inhibition of calpain I activity was calculated as the percent decrease in the rate of substrate hydrolysis in the presence of inhibitor relative to the rate in its absence. Comparison between the inhibited and control rates was made within the linear range for substrate hydrolysis. For screening, compounds were tested at […]. […] The results were plotted as percent inhibition versus log inhibitor concentration, and the IC50 was calculated from linear regression of the data.

The mark [1] stands for this setting: Table III, * mixture of diastereomers, a,b single diastereomers.
[2] abbreviates: Table II, * mixture of diastereomers, a,b single diastereomers.
The mark [3] stands for this setting: Table V, * mixture of diastereomers, a,b single diastereomers.

Each structure is given as a SMILES string. Read-outs that look alike come from different tables or passages of the source.

Take `O=C(NCCNS(=O)(=O)c1ccccc1)C(=O)[C@H](Cc1ccccc1)NC(=O)C1Cc2cc3c(cc2S(=O)(=O)N1)OCCO3` (stereo partly drawn) [Cpd 14AE, N-(2-(Benzenesulfonylamino)ethyl)-3-(3,4-Dihydro-6,7-ethylenedioxy-2H-1,2-benzothiazine-3-carboxamido)-2-oxo-3-(S)-benzylpropanamide 1,1-dioxide]: the IC50 under setting [1] was determined as 0.076 µM.
Turning to `CN1C(C(=O)N[C@H](C=O)Cc2ccccc2)Cc2ccccc2S1(=O)=O` (stereo partly drawn) [Cpd 12j, N-(3,4-Dihydro-2-methyl-2H-1,2-benzothiazine-3-carbonyl)-L-phenylalaninal 1,1-dioxide], under setting [2], the IC50 came out at 0.11 µM.
With `COC1=C(C(=O)N[C@H](C=O)Cc2ccccc2)N(C)S(=O)(=O)c2ccccc21` [Cpd 26d, N-(2-Methyl-4-methoxy-2H-1,2-benzothiazine-3-carbonyl)-L-phenylalaninal 1,1-dioxide], the IC50 (Table IV) stood at 0.037 µM.
`COc1cc2c(cc1OC)S(=O)(=O)N(C)C(C(=O)N[C@H](C=O)Cc1ccccc1)C2` (stereo partly drawn) [Cpd 12f, N-(3,4-Dihydro-6,7-dimethoxy-2-methyl-2H-1,2-benzothiazine-3-carbonyl)-L-phenylalaninal 1,1-dioxide]: the IC50 under setting [2] was 0.038 µM.
On to `CCNC(=O)C(=O)[C@H](Cc1ccccc1)NC(=O)C1Cc2cc(Cl)ccc2S(=O)(=O)N1C` (stereo partly drawn) [Cpd 14A, N-Ethyl-3-(6-chloro-3,4-dihydro-2-methyl-2H-1,2-benzothiazine-3-carboxamido)-2-oxo-3-(S)-benzylpropanamide 1,1-dioxide], for which the IC50 under setting [2] was around 1 µM.
On to `CCCCNC(=O)C(=O)[C@H](Cc1ccccc1)NC(=O)C1=Cc2cc3c(cc2S(=O)(=O)N1CC)OCCO3` [Cpd 27f], for which the IC50 (Table IV) is 0.155 µM.
Take `CN1C(C(=O)N[C@H](C=O)CCCCNS(=O)(=O)c2ccccc2)Cc2cc3c(cc2S1(=O)=O)OCCO3` (stereo partly drawn) [Cpd 12y, Nα -(3,4-Dihydro-6,7-ethylenedioxy-2-methyl-2H-1,2-benzothiazine-3-carbonyl)-L-Nε -(benzenesulfonyl)lysinal 1,1-dioxide]: the IC50 under setting [2] is 0.107 µM.
As for `O=C[C@H](Cc1ccccc1)NC(=O)C1=Nc2ccccc2S(=O)(=O)N1` [Cpd 42a, N-(2H-1,2,4-Benzothiadiazine-3-carbonyl)-L-phenylalaninal 1,1-dioxide], the IC50 (Table VI) amounted to 0.083 µM.
In the case of `CCN1C(C(=O)N[C@@H](Cc2ccccc2)C(=O)C(=O)NCCNS(=O)(=O)c2ccccc2)Cc2cc3c(cc2S1(=O)=O)OCCO3` (stereo partly drawn) [Cpd 14X, 3-((3,4-Dihydro-6,7-ethylenedioxy-2-ethyl-2H-1,2-benzothiazine-3-carbonyl)amino)-3-(S)-benzyl-2-oxo-N-(2-(benzenesulfonylamino)ethyl)propanamide 1,1-dioxide], under setting [1], the IC50 stood at 0.04 µM.
For `CCN1C(C(=O)N[C@@H](Cc2ccccc2)C(=O)C(=O)NCCNS(=O)(=O)c2ccc(F)cc2)Cc2cc3c(cc2S1(=O)=O)OCCO3` (stereo partly drawn) [Cpd 14AC, 3-((3,4-Dihydro-6,7-ethylenedioxy-2-ethyl-2H-1,2-benzothiazine-3-carbonyl)amino)-3-(S)-benzyl-2-oxo-N-(2-(4-fluorobenzenesulfonylamino)ethyl)propanamide 1,1-dioxide], the IC50 under setting [1] worked out at 0.029 µM.
On to `CN1C(C(=O)N[C@H](C=O)Cc2ccccc2)Cc2cc(N3CCOCC3)ccc2S1(=O)=O` (stereo partly drawn) [Cpd 12aa, N-(3,4-Dihydro-6-(4-morpholino)-2-methyl-2H-1,2-benzothiazine-3-carbonyl)-L-phenylalaninal 1,1-dioxide], for which the IC50 under setting [2] is 0.03 µM.
`CCN1C(C(=O)N[C@H](C=O)Cc2ccccc2)N(Cc2ccccc2)c2ccccc2S1(=O)=O` (single isomer, unassigned) [Cpd 35d, N-(3,4-Dihydro-2-ethyl-4-benzyl-2H-1,2,4-benzothiadiazine-3-carbonyl)-L-phenylalaninal 1,1-dioxide]: the IC50 under setting [3] is around 1 µM.
As to `CCCCNC(=O)C(=O)[C@H](Cc1ccccc1)NC(=O)C1=Nc2cc3c(cc2S(=O)(=O)N1)OCCO3` [Cpd 42d, 3-((2H-6,7-Ethylenedioxy-1,2,4-benzothiadiazine-3-carbonyl)amino)-3-(S)-benzyl-2-oxo-N-butylpropanamide 1,1-dioxide], the IC50 (Table VI) is around 10 µM.
In the case of `CCN1C(C(=O)N[C@@H](Cc2ccccc2)C(=O)C(=O)NCCCNS(=O)(=O)c2ccc([N+](=O)[O-])cc2)Cc2cc3c(cc2S1(=O)=O)OCCO3` (stereo partly drawn) [Cpd 14U, 3-((3,4-Dihydro-6,7-ethylenedioxy-2-ethyl-2H-1,2-benzothiazine-3-carbonyl)amino)-3-(S)-benzyl-2-oxo-N-(3-(4-nitrobenzenesulfonylamino)propyl)propanamide 1,1-dioxide], the IC50 under setting [1] is 0.05 µM.
As for `CCCN1c2ccccc2S(=O)(=O)N(CC)C1C(=O)N[C@H](C=O)Cc1ccccc1` (single isomer, unassigned) [Cpd 35a, N-(3,4-Dihydro-2-ethyl-4-propyl-2H-1,2,4-benzothiadiazine-3-carbonyl)-L-phenylalaninal 1,1-dioxide], the IC50 under setting [3] was around 1 µM.
Consider `COc1cc2c(cc1OC)S(=O)(=O)N(Cc1ccccc1)C(C(=O)N[C@H](C=O)Cc1ccccc1)C2` (stereo partly drawn) [Cpd 12g, N-(2-Benzyl-3,4-dihydro-6,7-dimnethoxy-2H-1,2-benzothiazine-3-carbonyl)-L-phenylalaninal 1,1-dioxide], for which, under setting [2], the IC50 was around 1 µM.
Turning to `O=C[C@H](Cc1ccccc1)NC(=O)C1Cc2ccccc2C(=O)N1` (single isomer, unassigned) [Cpd 50a, N-(1-Oxo-1,2,3,4-tetrahydroisoquinoline-3-carbonyl)-L-phenylalaninal], the IC50 (Table VII, a,b single diastereomers) is around 5 µM.
As for `CN1C(C(=O)N[C@H](C=O)CCCCNS(=O)(=O)c2ccccc2)Cc2cc3c(cc2S1(=O)=O)OCCO3` (stereo partly drawn) [Cpd 12x, Nα -(3,4-Dihydro-6,7-ethylenedioxy-2-methyl-2H-1,2-benzothiazine-3-carbonyl)-L-Nε -(benzenesulfonyl)lysinal 1,1-dioxide], under setting [2], the IC50 came out at 0.036 µM.
`CC(C)CN1C(C(=O)N[C@H](C=O)Cc2ccccc2)Cc2cc(Cl)ccc2S1(=O)=O` (stereo partly drawn) [Cpd 12n, N-(3,4-Dihydro-6-chloro-2-isobutyl-2H-1,2-benzothiazine-3-carbonyl)-L-phenylalaninal 1,1-dioxide]: the IC50 under setting [2] was around 0.2 µM.
Turning to `CCCCNC(=O)C(=O)[C@H](Cc1ccccc1)NC(=O)C1Nc2ccccc2S(=O)(=O)N1C` (stereo partly drawn) [Cpd 35e, 3-((3,4-Dihydro-4H-2-methyl-2H-1,2,4-benzothiadiazine-3-carbonyl)amino)-3-(S)-benzyl-2-oxo-N-butylpropanamide 1,1-dioxide], the IC50 under setting [3] was around 2 µM.
In the case of `COc1cc2c(cc1OC)S(=O)(=O)NC(C(=O)N[C@H](C=O)Cc1ccccc1)C2` (single isomer, unassigned) [Cpd 12d, N-(3,4-Dihydro-6,7-dimethoxy-2H-1,2-benzothiazine-3-carbonyl)-L-phenylalaninal 1,1-dioxide], under setting [2], the IC50 was around 0.7 µM.
`CN1C(C(=O)N[C@H](C=O)Cc2ccccc2)Cc2cc(N3CCOCC3)ccc2S1(=O)=O` (stereo partly drawn) [Cpd 12z, N-(3,4-Dihydro-6-(4-morpholino)-2-methyl-2H-1,2-benzothiazine-3-carbonyl)-L-phenylalaninal 1,1-dioxide]: under setting [2], the IC50 is around 0.5 µM.
As to `CCN1C(C(=O)N[C@@H](Cc2ccccc2)C(=O)C(=O)NCCCNS(=O)(=O)c2ccccc2)Cc2cc3c(cc2S1(=O)=O)OCCO3` (stereo partly drawn) [Cpd 14AA, 3-((3,4-Dihydro-6,7-ethylenedioxy-2-ethyl-2H-1,2-benzothiazine-3-carbonyl)amino)-3-(S)-benzyl-2-oxo-N-(3-(benzenesulfonylamino)propyl)propanamide 1,1-dioxide], the IC50 under setting [1] turned out to be 0.035 µM.
Turning to `CCNC(=O)C(=O)[C@H](Cc1ccccc1)NC(=O)C1Cc2cc3c(cc2S(=O)(=O)N1CC)OCCO3` (stereo partly drawn) [Cpd 14D], the IC50 under setting [1] worked out at 0.34 µM.

The record behind these values is US5952328A, “Benzothiazo and related heterocyclic group-containing cysteine and serine protease inhibitors” (Cephalon, Inc., priority 1997, dated 1999).
